From article PMC6974524 (Frontiers in Microbiology, 2020)
Values after ≈ are worked out from the molar mass of the structure shown. Values joined by “and” are separate entries in the source; they are usually repeats but may differ in a detail not shown here. Equal entries are not always repeated. “Also recorded” adds a separate entry of the source. Where two headings read alike, the source gives them in different places.

Tests used:
[1] = molecular target: DdlA (Mycobacterium tuberculosis, UniProt P9WP31); format: biochemical; conditions: for Kcat: Vmax divided by enzyme concentration
Excerpt: The activity of DdlA was monitored by coupling with pyruvate kinase (PK) and lactate dehydrogenase (LDH; Sigma-Aldrich) to detect the release of ADP. […] The assay system was monitored via a Perkin Elmer EnSpire® 2300 Multimode Plate Reader (PerkinElmer, MA, United States) by detecting decreases in NADH.
The calibration curve of the ultraviolet absorption of NADH at 340 nm to its concentrations was fabricated before studying the enzymatic kinetics of DdlA. The kinetic parameters of DldA were determined using serial twofold dilutions of one substrate (from 1 mM to 31.25 μM), while the other substrate was held constant at 1 mM. Km and Vmax values were calculated using non-linear regression of the Michaelis-Menten model in GraphPad Prism 5.0 (GraphPad Software, Inc., San Diego, CA, United States). Kcat was calculated based on the molecular weight of DdlA (42 kDa).

[2] = molecular target: Mtb DdlA (Mycobacterium tuberculosis, UniProt P9WP31); experiment: DdlA inhibition, PK/LDH-coupled assay detecting ADP release (NADH decrease); format: biochemical
[3] = test system: Mtb H37Rv; experiment: microbe, parasite or virus in culture; format: cell-based, Mycobacterium tuberculosis; conditions: for MIC: Mycobacterium tuberculosis, 336 h
[4] = test system: clinical Mtb strains; experiment: microbe, parasite or virus in culture; format: cell-based, Mycobacterium tuberculosis; conditions: for MIC: Mycobacterium tuberculosis
[5] = test system: Mtb H37Rv; experiment: Mouse model of TB, pulmonary bacterial load; format: in vivo, Balb/c mice; conditions: 25 mg/kg by gavage, 15 administrations (five times per week); vehicle 5.58
Excerpt: Specific pathogen-free (SPF) male Balb/c mice were purchased from the Institute of Laboratory Animal Sciences at the Chinese Academy of Medical Sciences and Peking Union Medical College. All animal experiments were supervised and approved by the Institutional Animal Care and Use Committee of the Institute of Medicinal Biotechnology. Twenty-six mice (6–8 weeks old, 18–20 g) were infected with Mtb H37Rv (about 100 CFU) via the 099C A4224 Inhalation Exposure System (Glas-col, Terre Haute, IN, United States). At 15 days after inoculum, two mice were anesthetized and decapitated to confirm the success of infection. DCS, INH, IMB-0283, and vehicle (0.5% CMC-Na) were administered through a gavage route (six mice per group). All chemicals were dosed at 25 mg/kg. Mice were sacrificed after 15 administrations (five times per week) to quantify pulmonary bacterial loads via counting CFUs.

[6] = test system: HepG2 cells
[7] = test system: Vero green-monkey kidney cells; experiment: Cytotoxicity assay (MTT), Vero; conditions: Vero TC50 relative to H37Rv MIC
[8] = test system: HepG2 cells; experiment: Cytotoxicity assay (MTT), HepG2; conditions: for SI: HepG2 TC50 relative to H37Rv MIC
[9] = test system: Mtb H37Rv; experiment: Morphology of Mtb by scanning electron microscopy; format: cell-based, Mycobacterium tuberculosis; conditions: 0.35 μg/mL
[10] = test system: Vero green-monkey kidney cells; conditions: 2 days
[11] = test system: C[C@@H](N)C(=O)O; experiment: purified protein, by the assay type; conditions: pH 8.0; 37.0 °C
[12] = substrate of DdlA, other substrate at 1 mM
[13] = Dixon plot, Figure 4 panels A, C, substrate ATP inferred, read-out: Ki for DdlA (ATP) (converted)
[14] = Dixon plot, competing substrate ATP, read-out: Ki for DdlA (ATP) (converted)
[15] = Mtb H37Rv, 2 weeks at 37°C, read-out: MIC

Sequence of DdlA (P9WP31 whole entry, looked up): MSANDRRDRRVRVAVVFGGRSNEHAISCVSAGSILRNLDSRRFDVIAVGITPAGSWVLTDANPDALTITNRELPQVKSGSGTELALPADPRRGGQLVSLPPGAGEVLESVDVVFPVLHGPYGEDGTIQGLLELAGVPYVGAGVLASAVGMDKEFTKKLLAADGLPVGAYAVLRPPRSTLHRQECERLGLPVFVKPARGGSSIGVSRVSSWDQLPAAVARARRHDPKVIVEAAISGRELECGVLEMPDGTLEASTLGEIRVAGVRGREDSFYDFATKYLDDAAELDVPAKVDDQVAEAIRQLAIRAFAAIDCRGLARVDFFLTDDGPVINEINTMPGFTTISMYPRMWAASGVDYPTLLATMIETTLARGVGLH
Sequence of Mtb DdlA (P9WP31 whole entry, looked up): as above

Q: For `Nc1ncnc2c1ncn2[C@@H]1O[C@H](COP(=O)(O)OP(=O)(O)OP(=O)(O)O)[C@@H](O)[C@H]1O` [ATP], which Kcat [1] is on record?
A: 405.8 min^–1 and 383.00 ± 14.14 min^–1

Q: What about the Km [1, 12] of the same molecule?
A: 360 ± 30.5 µM

Q: And the Vmax [1, 12]?
A: 20.29 μMmin^–1 and 19.15 ± 0.705 μMmin^–1

Q: Which Kcat [1] does the source give for `C[C@@H](N)C(=O)O` [D-Ala, D-alanine] here?
A: 568.79 ± 48.93 min^–1

Q: And the Vmax [1, 12]?
A: 28.44 ± 2.444 μMmin^–1

Q: `N[C@@H]1CON=C1O` [DCS, D-cycloserine, reference compound] was tested. Which Ki [2, 13] did it give?
A: 106 µM

Q: What about the Ki [2, 14] of the same molecule?
A: 107 µM

Q: What about the Ki ([2]; Ki for DdlA (D-Ala)) of the same molecule?
A: 182 µM

Q: What about the MIC [3, 15] of the same molecule?
A: 16 µg/mL (≈ 157 µM)

Q: What about the “MICs to several clinical strains” value ([4]; range over clinical strains) of the same molecule?
A: did not show any inhibitory effect

Q: What about the “Mtb load in mouse lungs” value [5] of the same molecule?
A: did not yield any such treatment efficacy; also recorded: did not yield any antibacterial activity; also recorded: showed no antibacterial activity

Q: What about the SI index ([6]; human (HepG2) and green monkey (Vero)) of the same molecule?
A: about 80

Q: And the SI [7]?
A: 127.75

Q: And the SI [8]?
A: 86.25

Q: What does the source list for `OC1(c2ccc(OC(F)F)cc2)C[N+](c2ccccc2)=C2CCCCN21` (centres unmarked) [IMB-0283]?
A: Ki [2, 13]: 5.43 µM; Ki [2, 14]: 4.44 µM; Ki ([2]; Ki for DdlA (D-Ala)): 32.6 µM and 39.9 µM; Inhibitory mode ([2]; Lineweaver-Burk and Dixon plots): competed with both substrates of DdlA; IC50 ([2]; mean of n = 3): 6.16 µM; IC50 ([2]; printed in Figure 3B): 7.62 µM; MIC [3, 15]: 0.5 µg/mL; MIC ([4]; range over clinical strains, read-out: MICs to several clinical strains): 0.5 to 4 µg/mL; MIC ([4]; strain FJ05060, S to INH, RMP, EMB, STR, CPM, KAN, OFX, read-out: MIC): 0.5 µg/mL; MIC ([4]; strain FJ05120, R to INH, RMP, read-out: MIC): 2 µg/mL; MIC ([4]; strain FJ05189, R to INH, RMP, read-out: MIC): 1 µg/mL; MIC ([4]; strain FJ05195, R to INH, RMP, EMB, STR, KAN, OFX, S to CPM, read-out: MIC): 4 µg/mL; MIC ([4]; strain FJ05349, S to INH, RMP, EMB, STR, CPM, KAN, OFX, read-out: MIC): 0.5 µg/mL; MIC ([4]; strain xz, R to INH, RMP, STR, CPM, OFX, S to EMB, KAN, read-out: MIC): 4 µg/mL; Morphology of Mtb ([9]; 12 h): typical long-rod morphology; Morphology of Mtb ([9]; 7 days): shrunken, shorter, and fragmented; Mtb load in mouse lungs [5]: 4.40 log CFU/mL; TC50 ([6]; human, 2 days): 115.4 µg/mL; TC50 [10]: 249.8 µg/mL; SI [7]: 499.6; SI [8]: 230.8; SI index ([8]; cell line not specified (HepG2 and Vero)): greater than 200

Q: `NNC(=O)c1ccncc1` [INH, isoniazid] was tested. Which “Reduction of MIC when combined with IMB-0283” value ([3]; H37Rv, IMB-0283 at 0.125 μg/mL) did it give?
A: eightfold

Q: And the “MIC when combined with IMB-0283” value ([3]; H37Rv, IMB-0283 at 0.125 μg/mL (0.25 × MIC))?
A: 0.016 µg/mL

Q: And the MIC [3, 15]?
A: 0.125 µg/mL (≈ 0.911 µM)

Q: And the “Mtb load in mouse lungs” value [5]?
A: 3.29 log CFU/mL

Q: For `CO[C@H]1/C=C/O[C@@]2(C)Oc3c(C)c(O)c4c(O)c(c(/C=N/N5CCN(C)CC5)c(O)c4c3C2=O)NC(=O)/C(C)=C\C=C\[C@H](C)[C@H](O)[C@@H](C)[C@@H](O)[C@@H](C)[C@H](OC(C)=O)[C@@H]1C` [RMP, rifampin], which “MIC when combined with IMB-0283” value [3] is on record?
A: 0.016 µg/mL

Q: What about the MIC ([3]; H37RV) of the same molecule?
A: 0.063 µg/mL (≈ 0.0766 µM)

Q: What does the source list for (Mycobacterium tuberculosis H37Rv)?
A: Vmax [11]: 28.4 µM/min; kcat [11]: 9.48 s⁻¹
